{
  "source": "paper PMC11056982",
  "about": "“Paraptotic Cell Death as an Unprecedented Mode of Action Observed for New Bipyridine-Silver(I) Compounds Bearing Phosphane Coligands” (Journal of Medicinal Chemistry, 2024)",
  "key": {"[1]": {"tested_on": "SK-OV-3 and MES-OV cells", "test": "Cell cycle distribution (PI stain, flow cytometry)", "format": "cell-based, human", "settings": "10 μM, 24 h", "description": "(§1) Cells were seeded in a density of (2–4) × 10^5 cells/well in six-well plates and in 1 mL culture medium containing 10% FBS. After 24 h recovery, cells were treated with the indicated compounds and concentrations. Next, the supernatant was collected followed by trypsinization of the cells and centrifugation at 300g for 5 min. In the following protocols, cells were stained with annexin V (AV) and propidium iodide (PI) for cell death analysis, with only PI for cell cycle analysis, or with 10 μg mL^–1 JC-1 for evaluation of the mitochondrial membrane potential as previously described.[54],[55]"}, "[2]": {"tested_on": "MES-OV cells", "test": "Mitochondrial membrane potential by JC-1 stain (flow cytometry)", "format": "cell-based, human", "settings": "24 h, 10 μM", "description": "as §1"}, "[3]": {"tested_on": "MES-OV cells", "test": "TEM analysis of subcellular morphology", "format": "cell-based, human", "settings": "24 h treatment", "description": "MES-OV Cells were seeded (8 × 10^5 cells/mL) in […] in six-well plates. After 24 h, cells were treated with the selected compounds at the indicated concentration for another 24 h. Afterward, cells were collected, pelleted, and fixed in a solution of 2.5% glutaraldehyde and 2% paraformaldehyde in 0.1 M cacodylate buffer (pH 7.4) for 2 h at room temperature. Samples were subsequently washed 3 × 10 min in cacodylate buffer and postfixed in 1% osmium tetroxide for 1 h. After 3 × 10 min washing in cacodylate buffer, samples were dehydrated in an ethanol series (30–100%, 10 min each) and pure acetone (2 × 10 min) and gradually embedded in Epon 812 resin (Serva). Sections (40–50 nm) were prepared with a Leica UC7 ultramicrotome, mounted on copper mesh grids, and contrasted with 1% uranyl acetate (7 min) and 3% lead citrate (3 min). Imaging was performed with a Tecnai G2 20 transmission electron microscope at 80 kV equipped with an FEI Eagle 4K CCD camera (Center for Anatomy and Cell Biology). Image processing was performed in Fiji[57] using the CLAHE filter (enhance local contrast)."}, "[4]": {"tested_on": "MES-OV cells", "test": "Phase-contrast microscopy of cytoplasmic vacuoles", "format": "cell-based, human", "settings": "6 and 24 h treatment", "description": "Cells were seeded 5 × 10^5/well in six-well plates after 24 h recovery treatment with compounds 1, 4, and 7 was performed with the indicated concentrations. After 6 and 24 h, phase-contrast images of the cells were taken with a Zeiss Primovert microscope (20× magnification). To determinate the percentage of vacuolated cells, images (three images each condition) were analyzed by ImageJ, and vacuolated cells were counted."}, "[5]": {"tested_on": "SK-OV-3", "test": "Cell death by annexin V/propidium iodide stain (flow cytometry)", "format": "cell-based, human", "settings": "SK-OV-3, 10 μM, 24 h", "description": "as §1"}, "[6]": {"test": "Stability in PBS by LC-ESI(+)-HRMS/MS", "format": "physicochemical", "settings": "80 μM in PBS, monitored 48 h", "description": "For the stability evaluation in PBS, 10 mM solutions of complexes 1, 4, and 7 were first prepared in DMSO. Two microliters of this solution were then added to PBS (250 μL) for a total concentration of 80 μM. Following centrifugation for 10 min at 3000 rpm, the resulting solutions were monitored by LC-ESI(+)-MS and LC-ESI(+)-HRMS for a period of 48 h."}, "[7]": {"tested_on": "SK-OV-3/CBP", "test": "MTT viability assay in carboplatin-resistant SK-OV-3/CBP cells", "format": "cell-based, human", "settings": "72 h; resistant subline vs parental line", "description": "(§2) Cells were seeded (2 × 10^4 cells/well for HCT116, HCT116/OxR, 3 × 10^4 cells/well for HCT116 p53KO, 4 × 10^4 cells/well for MES-OV, SK-OV-3, and their respective CBP resistant counterparts) in 100 μL/well in 96-well plates and allowed to attach for 24 h at 37 °C and 5% CO2. Compounds were first dissolved in DMSO to a 10 mM stock solution and then further diluted in a growth medium (DMSO concentration <1%). After 24 h, cells were treated with 100 μL of different drugs dilutions in triplicates with the final concentrations of 0, 0.01, 0.05, 0.075, 0.1, 0.5, 0.75, 1, 2.5, 5, 7.5, and 10 μM depending on the compound and the cell line."}, "[8]": {"tested_on": "MES-OV cells", "test": "ROS detection by DCF-DA flow cytometry in MES-OV", "format": "cell-based, human", "settings": "24 h", "description": "Cells were seeded 5 × 10^5 cells/mL in six-well plates. After 24 h treatment with the indicated concentration, cells were incubated with 10 μM 2′,7′-dichlorofluorescein diacetate (DCFH-DA, Sigma-Aldrich) in Hank’s balanced salt solution for 1 h at 37 °C. Subsequently, flow cytometry (with BD LSR Fortessa instrument, BD Biosciences, Franklin Lakes, NJ, USA) was performed to measure the median fluorescence signal of 20,000 single cells per sample. FlowJo (BD Biosciences, San Jose, CA, USA) and GraphPad Prism software (GraphPad Software Inc., San Diego, CA, USA) were to analyze the data."}, "[9]": {"tested_on": "HCT116 WT/OxR", "test": "MTT viability assay in oxaliplatin-resistant HCT116 WT/OxR cells", "format": "cell-based, human", "settings": "72 h; resistant subline vs parental line", "description": "as §2"}, "[10]": {"biological_target": "T1, recombinant rat TrxR (Rattus norvegicus, UniProt O89049)", "T1 construct": "purchased Cayman Chemical", "T1 sequence (O89049 1-499)": "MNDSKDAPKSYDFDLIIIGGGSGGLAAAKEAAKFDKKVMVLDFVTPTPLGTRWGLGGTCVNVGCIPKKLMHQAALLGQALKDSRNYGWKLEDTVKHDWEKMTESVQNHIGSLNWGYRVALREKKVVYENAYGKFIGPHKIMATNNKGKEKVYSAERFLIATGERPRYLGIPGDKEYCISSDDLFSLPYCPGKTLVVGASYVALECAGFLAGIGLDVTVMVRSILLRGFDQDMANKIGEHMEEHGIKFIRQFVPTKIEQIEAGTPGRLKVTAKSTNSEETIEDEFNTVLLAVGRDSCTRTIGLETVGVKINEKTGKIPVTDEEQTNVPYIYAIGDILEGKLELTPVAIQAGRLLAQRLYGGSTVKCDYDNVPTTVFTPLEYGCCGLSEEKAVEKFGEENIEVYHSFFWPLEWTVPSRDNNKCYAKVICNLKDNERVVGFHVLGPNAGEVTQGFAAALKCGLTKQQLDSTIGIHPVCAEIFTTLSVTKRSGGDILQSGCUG", "test": "Inhibition of mammalian TrxR (microplate reader-based DTNB assay)", "format": "biochemical", "settings": "cell-free assay", "description": "To determine the inhibition of mammalian TrxR, an established microplate reader-based assay was performed. For this purpose, commercially available recombinant rat TrxR (from Cayman Chemical) was used and diluted with distilled water to achieve a concentration of 0.12 U mL^–1. The compounds were freshly dissolved as stock solutions in DMSO. Aliquots (25 μL) of the enzyme solution and 25 μL of potassium phosphate buffer (pH 7.0) containing the compounds in graded concentrations (1% DMSO) were mixed. Positive controls were composed of 25 μL aliquots of the enzyme solution mixed with 25 μL 1% DMSO in buffer solution (no compounds). The final concentration of DMSO was 0.5% v/v in all samples. The blank solution was the highest used concentration of the compound in 0.5% DMSO in buffer solution (no enzyme). All resulting solutions were incubated with moderate shaking for 75 min at 37 °C in a 96-well plate. […] After proper mixing, the formation of 2-nitro-5-thiobenzoate (5-TNB) was monitored with a microplate reader at 405 nm 10 times in 35 s intervals for about 6 min. The increase in 5-TNB concentration over time followed a linear trend, and the enzymatic activities were calculated as the slopes (increase in absorbance per second) thereof. […] For the absorption measurements in the enzyme assay, a PerkinElmer 2030 Multilabel Reader VICTORTMX4 was used."}, "[11]": {"tested_on": "MES-OV/CBP", "test": "MTT viability assay in carboplatin-resistant MES-OV/CBP cells", "format": "cell-based, human", "settings": "72 h; resistant subline vs parental line", "description": "as §2"}},
  "data": [
    {"smiles": "O=S(=O)([O-])C(F)(F)F.[Ag+].c1ccc(-c2ccccn2)nc1.c1ccc(P(c2ccccc2)c2ccccc2)cc1", "note": "[Compound 1, [Ag(2,2′-bipy)(PPh3)][CF3SO3]]", "values": [
      {"measurement": "cell cycle distribution change", "setting": "[1]", "result": "significant shift from the G0–G1 phase to the S phase"},
      {"measurement": "cells with mitochondrial depolarization (low Δψ fraction)", "setting": "[2]", "result": 50, "unit": "%"},
      {"measurement": "vacuole diameter (TEM)", "setting": "[3]", "result": "300–500 nm"},
      {"measurement": "cytoplasmic vacuole formation (phase contrast)", "setting": "[4]", "result": "distinctly fewer vesicles of smaller and distinctive shapes"},
      {"measurement": "apoptosis induction (AV/PI)", "setting": "[5]", "result": "up to 100%"},
      {"measurement": "stability in PBS", "setting": "[6]", "result": "an equilibrium is established between the parent complex and AgP2 and AgN2 species"},
      {"measurement": "relative resistance (IC50 SK-OV-3/CBP divided by IC50 SK-OV-3)", "setting": "[7]", "result": "1.6^n.s."},
      {"measurement": "ROS levels (in words)", "setting": "[8]", "result": "significant and very strong elevation in ROS was found only in the 10 μM sample"},
      {"measurement": "relative resistance (IC50 HCT116 WT/OxR divided by IC50 HCT116 WT)", "setting": "[9]", "result": "0.7^n.s."},
      {"measurement": "TrxR inhibition strength relative to 7", "setting": "[10]", "result": 10, "unit": "fold"},
      {"measurement": "relative resistance (IC50 MES-OV/CBP divided by IC50 MES-OV)", "setting": "[11]", "result": "1.0^n.s."}
    ]}
  ]
}
